These are literature values, as cited in patent US9822391B2, “Methods for monitoring methotrexate therapy” (priority 2010, dated 2017).

For series [1] the following is noted: approximately 5-10% of individuals who do not metabolize MTX effectively; within the first few hours following once weekly administration; Chladek et al., 1998.
In series [2] the target is AICAR transformylase (Homo sapiens, UniProt P31939). Particulars: relative to MTX; Allegra et al., 1987.
Chain of AICAR transformylase (P31939 whole entry, species assumed): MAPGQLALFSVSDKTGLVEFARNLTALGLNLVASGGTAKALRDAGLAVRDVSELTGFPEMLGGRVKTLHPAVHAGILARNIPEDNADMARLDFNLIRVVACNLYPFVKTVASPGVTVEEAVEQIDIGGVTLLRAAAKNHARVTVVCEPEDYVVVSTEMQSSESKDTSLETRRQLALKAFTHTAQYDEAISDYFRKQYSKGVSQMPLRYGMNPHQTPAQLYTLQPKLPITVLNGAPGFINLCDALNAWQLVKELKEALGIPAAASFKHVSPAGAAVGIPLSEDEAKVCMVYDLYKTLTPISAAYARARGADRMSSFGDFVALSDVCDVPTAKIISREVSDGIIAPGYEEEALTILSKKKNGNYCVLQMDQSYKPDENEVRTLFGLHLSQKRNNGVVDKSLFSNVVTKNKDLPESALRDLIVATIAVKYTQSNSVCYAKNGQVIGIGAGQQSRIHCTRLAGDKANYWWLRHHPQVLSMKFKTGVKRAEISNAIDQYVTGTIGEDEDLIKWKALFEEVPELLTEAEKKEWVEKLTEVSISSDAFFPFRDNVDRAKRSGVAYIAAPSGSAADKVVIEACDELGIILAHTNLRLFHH

As to `CN(Cc1cnc2nc(N)nc(N)c2n1)c1ccc(C(=O)N[C@@H](CCC(=O)O)C(=O)O)cc1` [MTX, Methotrexate], the “excretion of the drug in urine” value in series [1] is recorded as “virtually the totality of the drug excreted unchanged in the urine”.

For the compound `CN(Cc1cnc2nc(N)nc(N)c2n1)c1ccc(C(=O)NC(CCC(=O)NC(CCC(=O)NC(CCC(=O)NC(CCC(=O)NC(CCC(=O)O)C(=O)O)C(=O)O)C(=O)O)C(=O)O)C(=O)O)cc1` (centres unmarked) [pentaglutamylated form of MTX], the “fold more potent than MTX itself against AICAR transformylase” value in series [2] is on record as 2500 fold.
